Reference: patent publication US7247653B2, “Pharmaceutical composition” (Takeda Pharmaceutical Company Limited, priority 2000, dated 2007)
Values after ≈ are worked out from the molar mass of the structure shown.

How the values were obtained:
Type in all cases: physicochemical
[1] = Solubility of compound 72 in aqueous maltosyl-β-cyclodextrin, HPLC method (Experimental Example 9); settings: 25° C., 3 hr shaking
Protocol: An aqueous solution of maltosyl-β-cyclodextrin (hereinafter abbreviated as G2-β-CyD) at a concentration shown in Table 18 was added to compound 72 (100 mg) and the mixture was shaken at 25° C. for 3 hr. The solution was filtrated through a 0.45 μm filter, and the solubility of compound 72 was quantitatively determined by HPLC method.

[2] = Solubility of compound 72 in polyoxyethylene hydrogenated castor oil 50/ethanol solution (Experimental Example 4)
Protocol: Polyoxyethylene hydrogenated castor oil 50/ethanol solution (50 μl) at a ratio (weight ratio) shown in Table 11 was added to compound 72 (5 mg), the mixture was stirred and the solubility was confirmed. The compound 72 dissolved at any mixing ratio, affording a clear solution.

[3] = Solubility of compound 72 in 40% aqueous 2-hydroxypropyl-β-cyclodextrin (Experimental Example 8); settings: HP-β-CyD concentration 40% aqueous solution
Protocol: 40% Aqueous solution of 2-hydroxypropyl-β-cyclodextrin (hereinafter abbreviated as HP-β-CyD) (1 ml) was added to compound 72 (5 mg), and the solubility was confirmed by sonication and vortex mixing. When not dissolved, 40% HP-β-CyD solution (1 ml) was further added, and solubility was confirmed after sonication and vortex mixing in the same manner. The concentration at the time of dissolution was taken as solubility.

[4] = Solubility of compound 72 in polyoxyethylene glycerol triricinoleate 35/ethanol solution (Experimental Example 1); settings: compound 72 (5 mg) in 50 μl polyoxyethylene glycerol triricinoleate 35/ethanol (w/w): 20/80 (Formulation 1), 65/35 (2), 100/0 (3)
Protocol: Polyoxyethylene glycerol triricinoleate 35/ethanol solution (50 μl) at a ratio (weight ratio) shown in Table 7 was added to compound 72 (5 mg), the mixture was stirred and the solubility was confirmed. The compound 72 dissolved at any mixing ratio, affording a clear solution.

[5] = Solubilizing effect of solubilizer on compound 72 (Comparative Example 1): stepwise solvent addition, sonication and vortex mixing
Protocol: Solubilizing Effect of Solubilizer on Compound 72
The solvent (1 ml) shown in Table 6 was added to compound 72 (5 mg), and solubility was confirmed after sonication and vortex mixing. When not dissolved, the solvent (1 ml) was further added, and solubility was confirmed after sonication and vortex mixing in the same manner. The concentration at the time of dissolution was taken as solubility.

In the case of CCOC(=O)C1=CCCCC1S(=O)(=O)Nc1ccc(F)cc1Cl (stereo not drawn) [compound 72, d-ethyl 6-[N-(2-chloro-4-fluorophenyl)sulfamoyl]-1-cyclohexene-1-carboxylate], the “Solubility” value ([1]; G2-β-CyD concentration 10%) is reported as 4900 µg/mL (≈ 13.5 mM), the “Solubility” value ([1]; G2-β-CyD concentration 20%) is reported as 13000 µg/mL (≈ 35.9 mM) and the “Solubility” value ([1]; G2-β-CyD concentration 40%) is reported as 31700 µg/mL (≈ 87.6 mM). For the same compound, the Solubility ([2]; compound 72 (5 mg) in 50 μl polyoxyethylene hydrogenated castor oil 50/ethanol (w/w) 20/80) was “Not less than 100 mg/ml”, the Solubility ([2]; compound 72 (5 mg) in 50 μl polyoxyethylene hydrogenated castor oil 50/ethanol (w/w) 65/35) was “Not less than 100 mg/ml” and the “solubility of compound 72 in the solvent used” value ([2]; polyoxyethylene hydrogenated castor oil 50/ethanol, any mixing ratio of Table 11) was “not less than 100 mg/ml”. The “Solubility (mg/ml)” value [3] was “About 1.7 mg/ml”, the Solubility [4] was “not less than 100 mg/ml” and the Solubility ([5]; solvent 10% Pluronic F68 (polyoxyethylene(160)polyoxypropylene(30)glycol), lower concentrations not examined) was “Not more than 0.5 mg/ml”. For the same compound, the Solubility ([5]; solvent 10% ethanol, lower concentrations not examined) was “Not more than 0.5 mg/ml”, the Solubility ([5]; solvent 10% nicotinamide, lower concentrations not examined) was “Not more than 0.5 mg/ml” and the Solubility ([5]; solvent 10% sodium desoxycholate) was “about 0.7 mg/ml”. The Solubility ([5]; solvent 10% sodium salicylate, lower concentrations not examined) was “Not more than 0.5 mg/ml” and the Solubility ([5]; solvent water) was 13 µg/mL (≈ 0.0359 mM).
